From US10112937B2, “P2X7 modulators and methods of use” (Janssen Pharmaceutica NV, priority 2013, dated 2018) come the findings set out here.

The term Ki denotes a dissociation constant, usually derived from enzyme kinetics or from competition with a known ligand. A low value points to higher affinity. In general, IC50 refers to the point on the concentration scale where inhibition reaches its midpoint.

In assay [1] the target is T1, human P2X7 (Homo sapiens (Human), UniProt Q99572). Nature of the assay: Radioligand binding ([3H]A-804598), human P2X7-1321N1 cell membranes.
Description: human or rat P2X7-1321N1 cells were collected and frozen @−80° C. On the day of the experiment, cell membrane preparations were made according to standard published methods. […] The assay was terminated by filtration (GF/B filters pre-soaked with 0.3% PEI) and washed with washing buffer (Tris-HCl 50 mM). The IC50 generated in the binding assay was corrected for tracer concentration and affinity of the tracer to derive at the affinity (Ki) of the test compounds. […] For analysis, each concentration point is averaged from triplicate values and the averaged values are plotted on Graphpad Prism.
Assay [2] concerns the target T1, human P2X7. As to the kind of experiment: Ca2+ flux (FLIPR) in 1321N1 cells expressing recombinant human P2X7.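 Note: cells loaded with Calcium-4 dye, preincubated with test compound for 30 min, fluorescence change read 180 s after agonist addition.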 It counts as cell-based.
Description: (§1) P2X7 Antagonism in Recombinant Human P2X7 Cells or Recombinant Rat P2X7 Cells: (a) Ca^2+ Flux and (b) Radioligand Binding
(§2) 1321N1 cells expressing the recombinant human or rat P2X7 channel was cultured in HyQ DME/(HyClone/Dulbecco's Modified Eagle Medium) high glucose supplemented with 10% Fetal Bovine Serum (FBS) and appropriate selection marker. Cells were seeded at a density of 25000 cells/well (96-well clear bottom black walled plates) in 100 μl volume/well. On the day of the experiment, cell plates were washed with assay buffer, containing (in mM): 130 NaCl, 2 KCl, 1 CaCl2, 1 MgCl2, 10 HEPES, 5 glucose; pH 7.40 and 300 mOs. After the wash, cells were loaded with the Calcium-4 dye (Molecular Device) and incubated in the dark for 60 minutes. Test compounds were prepared at 250× the test concentration in neat DMSO. Intermediate 96-well compound plates were prepared by transferring 1.2 μL of the compound into 300 μL of assay buffer. A further 3× dilution occurred when transferring 50 μL/well of the compound plate to 100 μL/well in the cell plate. Cells were incubated with test compounds and dye for 30 minutes. […] The fluorescence change was measured 180 seconds after adding the agonist.
In assay [3] the target is T1, human P2X7. Nature of the assay: P2X7 antagonism in human PBMCs (IL-1β release after LPS + Bz-ATP, ELISA). It counts as cell-based. The note with it: human PBMCs. (In general: In an ELISA, binding on a coated surface is turned into a signal by an enzyme label.)
Description: P2X7 Antagonism in Human Peripheral Blood Mononuclear Cells (PBMCs) and Human Whole Blood.
Human blood was collected using a blood donor program. PBMCs were isolated from blood using a Ficoll density gradient technique. Briefly, blood was laid on Ficoll solution and centrifuged at RT for 20 minutes at 2000 rpm. The buffy layer (between red blood cells and plasma) was carefully collected by aspiration, washed with PBS and centrifuged again at 1500 rpm for 15 minutes. The resulting cell pellet was washed and plated on 96 well-plates for experiments. For the Human Whole Blood experiments, 150 μl of human blood was platted on 96 well-plates. Lipopolysaccharide (LPS) (30 ng/ml) was added to each well and incubated for 1 hour. Test compounds were then added and incubated for 30 minutes. The P2X7 agonist, 2′(3′)-O-(4-benzoylbenzoyl) adenosine 5′ triphosphate (Bz-ATP) was then added at a final concentration of 0.5 mM (PBMC) or 1 mM (blood). Cells were incubated for an additional 1.5 hours. At that point, supernatant was collected and stored for IL-1β assay using manufacturer's protocol for enzyme-linked immunosorbent assay (ELISA). Data was expressed as percent control, where control is defined as the difference in IL-1β release in LPS+Bz-ATP samples and LPS only samples. Data was plotted as response (% control) versus concentration to generate IC50 values. […] Data are analyzed and graphed on Graphpad Prism 5. For analysis, each concentration point is averaged from triplicate values and the averaged values are plotted on Graphpad Prism.
In assay [4] the target is rat P2X7 (Rattus norvegicus (Rat), UniProt Q64663). As to the kind of experiment: Ca2+ flux (FLIPR) in 1321N1 cells expressing recombinant rat P2X7.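 Note: Calcium-4 dye fluorescence change read 180 s after agonist addition, with cells preincubated 30 min with compound and dye in 96-well plates.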 It counts as cell-based. On the technique in general: Calcium assays in cells follow changes in intracellular calcium, usually with a dye or a luminescent sensor.
Description: as §1, §2
[5] abbreviates: human P2X7-1321N1 membranes, tritiated A-804598.
[6] abbreviates: 1321N1 cells, recombinant human P2X7, 250 μM BzATP.
[7] abbreviates: 1321N1 cells, recombinant rat P2X7, 250 μM BzATP.
[8] abbreviates: Ca2+ flux, 250 μM BzATP, human P2X7 1321N1 cells.
The mark [9] stands for this setting: 10 μM test compound, LPS + Bz-ATP.
The mark [10] stands for this setting: Ca2+ flux, 250 μM BzATP, rat P2X7 1321N1 cells.
The mark [11] stands for this setting: [3H]A-804598, human P2X7-1321N1 membranes.

A value given as a limit tells only on which side of the number the result lay.

T1 sequence (Q99572 whole entry): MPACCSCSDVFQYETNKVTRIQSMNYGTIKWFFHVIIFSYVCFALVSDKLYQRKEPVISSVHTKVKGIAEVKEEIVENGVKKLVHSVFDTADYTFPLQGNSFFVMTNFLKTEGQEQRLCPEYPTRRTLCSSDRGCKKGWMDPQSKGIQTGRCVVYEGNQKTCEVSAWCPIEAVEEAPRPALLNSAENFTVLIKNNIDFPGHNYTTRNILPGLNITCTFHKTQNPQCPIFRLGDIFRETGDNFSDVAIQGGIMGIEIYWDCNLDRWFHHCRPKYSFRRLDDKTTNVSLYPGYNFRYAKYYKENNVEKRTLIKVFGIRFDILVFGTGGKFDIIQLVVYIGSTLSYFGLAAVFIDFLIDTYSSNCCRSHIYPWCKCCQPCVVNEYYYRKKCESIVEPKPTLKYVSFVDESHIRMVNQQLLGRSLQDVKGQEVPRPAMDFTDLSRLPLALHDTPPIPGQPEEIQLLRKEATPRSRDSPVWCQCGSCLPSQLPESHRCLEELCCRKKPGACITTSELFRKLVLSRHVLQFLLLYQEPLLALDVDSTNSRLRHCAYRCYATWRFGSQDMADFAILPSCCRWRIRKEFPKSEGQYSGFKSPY
Chain of rat P2X7 (Q64663 whole entry): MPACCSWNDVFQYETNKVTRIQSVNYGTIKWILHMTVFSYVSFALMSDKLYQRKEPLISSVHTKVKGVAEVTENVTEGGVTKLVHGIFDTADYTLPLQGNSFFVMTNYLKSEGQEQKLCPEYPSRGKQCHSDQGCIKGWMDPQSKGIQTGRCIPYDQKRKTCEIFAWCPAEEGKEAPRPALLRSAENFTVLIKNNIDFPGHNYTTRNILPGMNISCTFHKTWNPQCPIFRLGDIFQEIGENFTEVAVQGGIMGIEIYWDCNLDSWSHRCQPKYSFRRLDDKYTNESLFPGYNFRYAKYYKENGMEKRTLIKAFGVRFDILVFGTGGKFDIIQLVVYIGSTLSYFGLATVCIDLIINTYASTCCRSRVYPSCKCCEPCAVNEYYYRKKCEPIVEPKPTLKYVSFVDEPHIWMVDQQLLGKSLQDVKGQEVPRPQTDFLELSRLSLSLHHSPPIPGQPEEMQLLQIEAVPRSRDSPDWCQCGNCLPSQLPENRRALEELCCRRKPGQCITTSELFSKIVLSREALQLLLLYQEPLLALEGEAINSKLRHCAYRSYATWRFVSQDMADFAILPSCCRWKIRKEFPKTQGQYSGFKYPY

`Cc1c(C(=O)N2Cc3nnn(-c4ccn[nH]4)c3C[C@H]2C)cccc1C(F)(F)F` (single isomer, unassigned) [Example 346, (R*)-(6-methyl-1-(1H-pyrazol-3-yl)-6,7-dihydro-1H-[1,2,3]triazolo[4,5-c]pyridin-5(4H)-yl)(2-methyl-3-(trifluoromethyl)phenyl)methanone] gave a Ki in assay [1] (setting [5]) of 10 nM. For the same compound, the values for the IC50 in assay [2] (setting [6]) and in assay [4] (setting [7]) were 6.5 nM and 2.2 nM, respectively. For the same compound, the “PBMC 10 μM (% control)” value in assay [3] (test compound 10 μM) is recorded as −2.3 % control.
`C[C@H]1Cc2c(nnn2-c2ccn[nH]2)CN1C(=O)c1cccc(C(F)(F)F)c1F` (single isomer, unassigned) [Example 349, (S*)-(2-fluoro-3-(trifluoromethyl)phenyl)(6-methyl-1-(1H-pyrazol-5-yl)-6,7-dihydro-1H-[1,2,3]triazolo[4,5-c]pyridin-5(4H)-yl)methanone] displayed a Ki in assay [1] (setting [5]) of 7.9 nM. Further, the IC50 in assay [2] (setting [6]) amounted to 2.7 nM; in assay [4] (setting [7]), 2.2 nM. The “PBMC 10 μM (% control)” value in assay [3] (test compound 10 μM) worked out at 0.7 % control.
`Cc1cc(-n2nnc3c2CCN(C(=O)c2ccnc(C(F)(F)F)c2F)[C@@H]3C)ncc1F` (single isomer, unassigned) [Example 368, (R*)-(3-fluoro-2-(trifluoromethyl)pyridin-4-yl)(1-(5-fluoro-4-methylpyridin-2-yl)-4-methyl-6,7-dihydro-1H-[1,2,3]triazolo[4,5-c]pyridin-5(4H)-yl)methanone]: the Ki in assay [1] (setting [5]) amounted to 39.8 nM. Besides, the IC50 turned out to be 22.6 nM in assay [2] (setting [6]) and 235 nM in assay [4] (setting [7]). For the same compound, the “PBMC 10 μM (% control)” value in assay [3] (test compound 10 μM) is −2.3 % control.
`C[C@@H]1c2nnn(-c3cccc(C(F)(F)F)n3)c2CCN1C(=O)c1cccc(C(F)(F)F)c1Cl` (single isomer, unassigned) [Example 379, (R*)-(2-chloro-3-(trifluoromethyl)phenyl)(4-methyl-1-(6-(trifluoromethyl)pyridin-2-yl)-6,7-dihydro-1H-[1,2,3]triazolo[4,5-c]pyridin-5(4H)yl)methanone] showed a Ki in assay [1] (setting [5]) of 200 nM. For the same compound, the results for the IC50 in assay [2] (setting [6]) and in assay [4] (setting [7]) were 113 nM and 47.4 nM, respectively. Further, the “PBMC 10 μM (% control)” value in assay [3] (test compound 10 μM) amounted to 3.8 % control.
On the same counts, the results for `Cc1ccnc(-n2nnc3c2CCN(C(=O)c2cccc(Cl)c2Cl)[C@H]3C)n1` (single isomer, unassigned) [Example 392, (S*)-(2,3-dichlorophenyl)(4-methyl-1-(4-methylpyrimidin-2-yl)-6,7-dihydro-1H-[1,2,3]triazolo[4,5-c]pyridin-5(4H)-yl)methanone] are 4 nM, 3.6 nM, 47.3 nM and 14.4 % control.
As to `Cc1c(C(=O)N2Cc3nnn(-c4cc[nH]n4)c3CC2C)cccc1C(F)(F)F` (centres unmarked) [Example 154, (6-methyl-1-(1H-pyrazol-3-yl)-6,7-dihydro-1H-[1,2,3]triazolo[4,5-c]pyridin-5(4H)-yl)(2-methyl-3-(trifluoromethyl)phenyl)methanone], the Ki in assay [1] (setting [5]) was 7.9 nM. Further, the “PBMC 10 μM (% control)” value in assay [3] (test compound 10 μM) is −0.6 % control.
As to `C[C@H]1Cc2c(nnn2-c2ncc(F)cn2)CN1C(=O)c1ccc(Cl)cc1F` [Example 156, (S)-(4-chloro-2-fluorophenyl)(1-(5-fluoropyrimidin-2-yl)-6-methyl-6,7-dihydro-1H-[1,2,3]triazolo[4,5-c]pyridin-5(4H)-yl)methanone], in assay [1] (setting [5]), the Ki was 6.3 nM. Moreover, in assay [3] (test compound 10 μM), the “PBMC 10 μM (% control)” value stood at 1.8 % control.
`Cc1cc(-n2nnc3c2CCN(C(=O)c2ccnc(C(F)(F)F)c2F)C3C)ncc1F` (centres unmarked) [Example 367, (3-fluoro-2-(trifluoromethyl)pyridin-4-yl)(1-(5-fluoro-4-methylpyridin-2-yl)-4-methyl-6,7-dihydro-1H-[1,2,3]triazolo[4,5-c]pyridin-5(4H)-yl)methanone]: affinity in assay [1] (setting [5]) was put at a Ki of 115 nM. Further, the figures for the IC50 in assay [2] (setting [6]) and in assay [4] (setting [7]) were 75.7 nM and 2150 nM, respectively. Moreover, in assay [3] (test compound 10 μM), the “PBMC 10 μM (% control)” value is 0.9 % control.
As for `Cc1cc(-n2nnc3c2CCN(C(=O)c2ccnc(C(F)(F)F)c2Cl)C3C)ncc1F` (centres unmarked) [Example 370, (3-chloro-2-(trifluoromethyl)pyridin-4-yl)(1-(5-fluoro-4-methylpyridin-2-yl)-4-methyl-6,7-dihydro-1H-[1,2,3]triazolo[4,5-c]pyridin-5(4H)-yl)methanone], the Ki in assay [1] (setting [5]) turned out to be 63.1 nM. Further, the IC50 was 59.7 nM in assay [2] (setting [6]) and 256 nM in assay [4] (setting [7]). Besides, in assay [3] (test compound 10 μM), the “PBMC 10 μM (% control)” value was −2.2 % control.
Take `C[C@H]1Cc2c(nnn2-c2ncc(F)cn2)CN1C(=O)c1cccc(C(F)(F)F)c1O` [Example 426, (S)-(1-(5-fluoropyrimidin-2-yl)-6-methyl-6,7-dihydro-1H-[1,2,3]triazolo[4,5-c]pyridin-5(4H)-yl)(2-hydroxy-3-(trifluoromethyl)phenyl)methanone]: the IC50 in assay [2] (setting [8]) and in assay [4] (setting [10]) was greater than 10000 nM in each case. Further, the “PBMC 10 μM (% control)” value in assay [3] (setting [9]) is 113.2 % control.
In the case of `C[C@H]1Cc2c(nnn2-c2ncc(F)cn2)CN1C(=O)c1cccc(OC(F)(F)F)c1F` [Example 427, (S)-(2-fluoro-3-(trifluoromethoxy)phenyl)(1-(5-fluoropyrimidin-2-yl)-6-methyl-6,7-dihydro-1H-[1,2,3]triazolo[4,5-c]pyridin-5(4H)-yl)methanone], the figures for the IC50 in assay [2] (setting [8]) and in assay [4] (setting [10]) were 262 nM and 8280 nM, respectively. In assay [3] (setting [9]), the “PBMC 10 μM (% control)” value is listed as −0.8 % control.
On to `C[C@H]1Cc2c(nnn2-c2ncc(O)cn2)CN1C(=O)c1cccc(C(F)(F)F)c1F` [Example 428, (S)-(2-fluoro-3-(trifluoromethyl)phenyl)(1-(5-hydroxypyrimidin-2-yl)-6-methyl-6,7-dihydro-1H-[1,2,3]triazolo[4,5-c]pyridin-5(4H)-yl)methanone], for which the IC50 in assay [2] (setting [8]) was found to be 16.6 nM; in assay [4] (setting [10]), 21.2 nM. In addition, the “PBMC 10 μM (% control)” value in assay [3] (setting [9]) turned out to be 1.4 % control.
`CC1c2n[nH]c(-c3ccccn3)c2CCN1C(=O)c1cccc(C(F)(F)F)c1Cl` (centres unmarked) [Example 432, (2-chloro-3-(trifluoromethyl)phenyl)(7-methyl-3-(pyridin-2-yl)-4,5-dihydro-2H-pyrazolo[3,4-c]pyridin-6(7H)-yl)methanone]: the Ki in assay [1] (setting [11]) amounted to 15.8 nM. For the same compound, in assay [3] (setting [9]), the “PBMC 10 μM (% control)” value was 0.3 % control. Moreover, in assay [4] (setting [10]), the IC50 stood at 32.8 nM.
`CC1c2n[nH]c(-c3cnccn3)c2CCN1C(=O)c1cccc(Cl)c1Cl` (centres unmarked) [Example 433, (2,3-dichlorophenyl)(7-methyl-3-(pyrazin-2-yl)-4,5-dihydro-2H-pyrazolo[3,4-c]pyridin-6(7H)-yl)methanone] showed a Ki in assay [1] (setting [11]) of 15.8 nM. Moreover, the IC50 in assay [2] (setting [8]) is 18.9 nM. The “PBMC 10 μM (% control)” value in assay [3] (setting [9]) is given as −3.6 % control.
`CC1c2n[nH]c(-c3ccc(F)cc3)c2CCN1C(=O)c1cccc(Cl)c1Cl` (centres unmarked) [Example 435, (2,3-dichlorophenyl)(3-(4-fluorophenyl)-7-methyl-4,5-dihydro-2H-pyrazolo[3,4-c]pyridin-6(7H)-yl)methanone] gave a Ki in assay [1] (setting [11]) of 100 nM. In addition, the IC50 in assay [2] (setting [8]) worked out at 58.6 nM. The “PBMC 10 μM (% control)” value in assay [3] (setting [9]) was −11.3 % control.
As for `CC1c2n[nH]c(-c3ccnn3C)c2CCN1C(=O)c1cccc(Cl)c1Cl` (centres unmarked) [Example 436, (2,3-dichlorophenyl)(7-methyl-3-(1-methyl-1H-pyrazol-5-yl)-4,5-dihydro-2H-pyrazolo[3,4-c]pyridin-6(7H)-yl)methanone], the values for the IC50 in assay [2] (setting [8]) and in assay [4] (setting [10]) were 1130 nM and greater than 10000 nM, respectively. Also, the “PBMC 10 μM (% control)” value in assay [3] (setting [9]) is listed as −3.4 % control.
